The target of assay [1] is Beta-lactamase VIM-2 (Pseudomonas aeruginosa) (UniProt Q9K2N0). Nature of the assay: Inhibition of beta-lactamase VIM-2 in Pseudomonas aeruginosa assessed as potentiation of meropenem-induced antibacterial activity by measuring meropenem MIC at 50 uM after 20 hrs by broth microdilution assay (meropenem alone = 32 to 64 mg/L).
For assay [2], the target named is Metallo-beta-lactamase type 2 (Klebsiella pneumoniae) (UniProt C7C422). Nature of the assay: Inhibition of NDM1 in Pseudomonas aeruginosa assessed as potentiation of meropenem-induced antibacterial activity by measuring meropenem MIC at 50 uM after 20 hrs by broth microdilution assay (meropenem alone = 32 to 64 mg/L).
Chain of Metallo-beta-lactamase type 2 (Klebsiella pneumoniae) (C7C422 whole entry): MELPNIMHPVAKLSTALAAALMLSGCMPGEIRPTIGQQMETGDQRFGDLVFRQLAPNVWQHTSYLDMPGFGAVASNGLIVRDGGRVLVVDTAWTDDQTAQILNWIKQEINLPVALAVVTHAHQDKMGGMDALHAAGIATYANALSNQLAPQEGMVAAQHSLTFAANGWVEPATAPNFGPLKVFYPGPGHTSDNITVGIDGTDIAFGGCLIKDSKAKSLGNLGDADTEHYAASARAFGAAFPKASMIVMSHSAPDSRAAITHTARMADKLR
Assay [3] deals with Beta-lactamase VIM-2 (Pseudomonas aeruginosa) (UniProt Q9K2N0). The assay can be described thus: Inhibition of beta-lactamase VIM-2 in Pseudomonas aeruginosa assessed as potentiation of meropenem-induced antibacterial activity by measuring meropenem MIC at 31 uM after 20 hrs by broth microdilution assay (meropenem alone = 32 to 64 mg/L).
Assay [4] shares this target. The assay can be described thus: Inhibition of beta-lactamase VIM-2 in Pseudomonas aeruginosa assessed as potentiation of meropenem-induced antibacterial activity by measuring meropenem MIC at 16 uM after 20 hrs by broth microdilution assay (meropenem alone = 32 to 64 mg/L).
In assay [5] the target is Metallo-beta-lactamase type 2 (Klebsiella pneumoniae) (UniProt C7C422). Nature of the assay: Inhibition of NDM1 in Pseudomonas aeruginosa assessed as potentiation of meropenem-induced antibacterial activity by measuring meropenem MIC at 31 uM after 20 hrs by broth microdilution assay (meropenem alone = 32 to 64 mg/L).
The target is the same in assay [6]. The assay can be described thus: Inhibition of NDM1 in Pseudomonas aeruginosa assessed as potentiation of meropenem-induced antibacterial activity by measuring meropenem MIC at 16 uM after 20 hrs by broth microdilution assay (meropenem alone = 32 to 64 mg/L).
The subject of another assay is MDA-MB-231. The assay can be described thus: Cytotoxicity against human MDA-MB-231 cells after 72 hrs by MTT assay. Format: cell-based. Conditions: MDA-MB-231, 72 h.
Assay [7] can be described thus: Cytotoxicity against human MiaPaCa cells after 72 hrs by MTT assay. The class given is cell-based. Conditions: MIA PaCa-2, 72 h.
Another assay deals with COLO357. Nature of the assay: Cytotoxicity against human Colo-357 cells after 72 hrs by MTT assay. The class given is cell-based. The settings on record: COLO357, 72 h.
A further assay deals with HepG2. The assay can be described thus: Cytotoxicity against human HepG2 cells after 72 hrs by MTT assay. Format: cell-based. Conditions: HepG2, 72 h.
Assay [8] in a line: Binding affinity to zinc assessed as dissociation constant for compound-metal complex.
For assay [9], the target named is Beta-lactamase VIM-2 (Pseudomonas aeruginosa) (UniProt Q9K2N0). Nature of the assay: Inhibition of beta-lactamase VIM-2 in Pseudomonas aeruginosa assessed as potentiation of meropenem-induced antibacterial activity by measuring meropenem MIC at 125 uM after 20 hrs by broth microdilution assay (meropenem alone = 32 to 64 mg/L).
Assay [10] concerns the target Metallo-beta-lactamase type 2 (Klebsiella pneumoniae) (UniProt C7C422). Nature of the assay: Inhibition of NDM1 in Pseudomonas aeruginosa assessed as potentiation of meropenem-induced antibacterial activity by measuring meropenem MIC at 125 uM after 20 hrs by broth microdilution assay (meropenem alone = 32 to 64 mg/L).

Turning to `COC(=O)[C@@H](C)NC(=O)[C@@H](C)NC(=O)CN(C)CCN(Cc1ccccn1)Cc1ccccn1`, the MIC in [1] is 1 µg/mL; in [2] it was 0.125 µg/mL; in assay [3] it was 1 to 2 µg/mL; in [4], 32 µg/mL; in [5], 0.125 µg/mL; in assay [6], 16 µg/mL. Also, the IC50 with MDA-MB-231 came to 4.5 µM; in [7], 5.1 µM; in the assay with COLO357, 4.3 µM; in the assay on HepG2, 6.83 µM. Besides, in assay [8], the pKd is recorded as 11.8.
Take `C[C@@H](N)C(=O)N[C@H](C)C(=O)NCCc1ccc(NC(=O)CN(CCN(Cc2ccccn2)Cc2ccccn2)Cc2ccccn2)cc1.Cl`: the MIC in assay [9] stood at 2 µg/mL; in assay [10], 0.125 µg/mL; in assay [3] it was 2 µg/mL; in [4] it was 32 µg/mL; in [5], 0.125 µg/mL; in assay [6], 8 µg/mL. In addition, the IC50 in the assay on MDA-MB-231 was 4.9 µM; in assay [7], 4.8 µM; in the assay on COLO357, 6.8 µM; with HepG2 it was 13.6 µM. In addition, in assay [8], the pKd is 12.3.

The values are drawn from ChEMBL document CHEMBL4480377, “Synthesis and biological evaluation of zinc chelating compounds as metallo-β-lactamase inhibitors” (Medchemcomm, 2019).
